Measured values as given in patent publication US12011439B2, “Combination therapy using C—C chemokine receptor 4 (CCR4) antagonists and one or more immune checkpoint inhibitors” (CHEMOCENTRYX, INC., priority 2018, dated 2024).

Legend:
Assay in all cases: Compound 1 selectivity panel, buffer IC50
Type in all cases: cell-based
CCR1 = molecular target: T1, CCR1 (Homo sapiens, UniProt P32246); details: Receptor CCR1
T1 sequence (P32246 1-355): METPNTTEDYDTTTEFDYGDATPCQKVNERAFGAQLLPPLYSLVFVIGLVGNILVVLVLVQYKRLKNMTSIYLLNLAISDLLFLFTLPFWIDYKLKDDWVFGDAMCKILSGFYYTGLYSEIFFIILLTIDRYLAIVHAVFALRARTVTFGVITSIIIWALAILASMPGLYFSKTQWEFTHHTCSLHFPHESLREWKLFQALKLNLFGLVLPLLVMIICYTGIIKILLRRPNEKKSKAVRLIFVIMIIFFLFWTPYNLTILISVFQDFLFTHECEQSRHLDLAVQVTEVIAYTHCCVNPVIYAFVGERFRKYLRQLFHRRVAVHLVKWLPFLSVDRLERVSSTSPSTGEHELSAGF
Experimental: (§1) The selectivity of Compound 1 was tested by determining the IC50 value against a diverse panel of receptors, enzymes, and ion channels. […] See, Table 1.

CCR6 = molecular target: T2, CCR6 (Homo sapiens, UniProt P51684); details: Receptor CCR6
T2 sequence (P51684 1-374): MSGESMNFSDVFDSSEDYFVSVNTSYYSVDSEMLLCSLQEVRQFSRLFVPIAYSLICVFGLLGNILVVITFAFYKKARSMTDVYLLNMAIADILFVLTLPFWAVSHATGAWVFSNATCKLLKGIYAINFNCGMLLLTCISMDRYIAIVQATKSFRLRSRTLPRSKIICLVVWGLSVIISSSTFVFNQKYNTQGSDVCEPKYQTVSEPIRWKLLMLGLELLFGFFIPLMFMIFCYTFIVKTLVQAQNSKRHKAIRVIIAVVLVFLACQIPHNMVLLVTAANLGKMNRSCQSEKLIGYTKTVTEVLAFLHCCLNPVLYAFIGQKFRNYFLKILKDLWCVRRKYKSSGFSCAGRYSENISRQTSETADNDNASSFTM
Experimental: as §1

CCR7 = molecular target: T3, CCR7 (Homo sapiens, UniProt P32248); details: Receptor CCR7
T3 sequence (P32248 25-378): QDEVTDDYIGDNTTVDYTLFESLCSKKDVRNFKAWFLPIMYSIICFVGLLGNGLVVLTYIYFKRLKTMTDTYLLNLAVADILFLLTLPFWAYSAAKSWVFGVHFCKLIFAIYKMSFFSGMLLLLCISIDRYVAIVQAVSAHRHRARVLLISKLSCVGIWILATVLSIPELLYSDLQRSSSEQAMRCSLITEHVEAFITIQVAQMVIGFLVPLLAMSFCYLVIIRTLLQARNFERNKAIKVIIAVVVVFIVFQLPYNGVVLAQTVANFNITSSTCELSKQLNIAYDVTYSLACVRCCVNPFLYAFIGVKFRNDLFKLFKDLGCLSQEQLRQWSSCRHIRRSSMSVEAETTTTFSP
Experimental: as §1

CCR8 = CCR8 (Homo sapiens, UniProt P51685); details: Receptor CCR8
CCR8, sequence (P51685 whole entry, species assumed): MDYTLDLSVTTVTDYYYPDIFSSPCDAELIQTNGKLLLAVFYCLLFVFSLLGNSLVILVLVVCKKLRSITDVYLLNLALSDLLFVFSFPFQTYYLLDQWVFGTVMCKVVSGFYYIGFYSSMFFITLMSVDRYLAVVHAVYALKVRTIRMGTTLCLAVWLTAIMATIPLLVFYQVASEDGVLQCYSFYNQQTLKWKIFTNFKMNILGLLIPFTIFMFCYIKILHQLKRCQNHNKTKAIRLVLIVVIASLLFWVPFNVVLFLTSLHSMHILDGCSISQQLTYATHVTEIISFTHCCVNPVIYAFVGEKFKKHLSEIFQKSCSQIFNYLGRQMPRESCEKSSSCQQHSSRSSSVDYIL
Experimental: as §1

CCR9 = molecular target: T4, CCR9 (Homo sapiens, UniProt P51686); details: Receptor CCR9
T4 sequence (P51686 1-369): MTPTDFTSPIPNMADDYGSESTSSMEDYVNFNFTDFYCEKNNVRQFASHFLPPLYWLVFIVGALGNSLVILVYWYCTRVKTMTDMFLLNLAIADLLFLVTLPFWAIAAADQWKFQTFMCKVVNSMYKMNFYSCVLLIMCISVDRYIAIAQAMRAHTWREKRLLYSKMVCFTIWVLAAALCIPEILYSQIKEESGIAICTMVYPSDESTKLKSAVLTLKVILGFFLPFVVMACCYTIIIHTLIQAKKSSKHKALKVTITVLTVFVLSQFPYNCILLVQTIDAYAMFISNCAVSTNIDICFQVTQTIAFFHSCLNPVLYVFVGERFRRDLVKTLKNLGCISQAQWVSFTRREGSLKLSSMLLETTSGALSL
Experimental: as §1

CXCR2 = molecular target: T5, CXCR2 (Homo sapiens, UniProt P25025); details: Receptor CXCR2
T5 sequence (P25025 1-360): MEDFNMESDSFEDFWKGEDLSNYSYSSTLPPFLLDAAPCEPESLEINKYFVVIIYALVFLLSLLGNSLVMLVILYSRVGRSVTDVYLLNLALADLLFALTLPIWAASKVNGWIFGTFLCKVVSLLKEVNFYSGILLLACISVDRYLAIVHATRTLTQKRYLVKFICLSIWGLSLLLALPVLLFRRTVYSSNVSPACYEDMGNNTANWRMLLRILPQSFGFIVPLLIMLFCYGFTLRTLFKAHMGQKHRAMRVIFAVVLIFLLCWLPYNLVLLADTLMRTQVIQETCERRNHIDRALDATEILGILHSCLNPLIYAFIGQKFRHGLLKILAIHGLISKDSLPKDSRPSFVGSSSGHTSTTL
Experimental: as §1

CXCR3 = molecular target: T6, CXCR3 (Homo sapiens, UniProt P49682); details: Receptor CXCR3
T6 sequence (P49682 1-368): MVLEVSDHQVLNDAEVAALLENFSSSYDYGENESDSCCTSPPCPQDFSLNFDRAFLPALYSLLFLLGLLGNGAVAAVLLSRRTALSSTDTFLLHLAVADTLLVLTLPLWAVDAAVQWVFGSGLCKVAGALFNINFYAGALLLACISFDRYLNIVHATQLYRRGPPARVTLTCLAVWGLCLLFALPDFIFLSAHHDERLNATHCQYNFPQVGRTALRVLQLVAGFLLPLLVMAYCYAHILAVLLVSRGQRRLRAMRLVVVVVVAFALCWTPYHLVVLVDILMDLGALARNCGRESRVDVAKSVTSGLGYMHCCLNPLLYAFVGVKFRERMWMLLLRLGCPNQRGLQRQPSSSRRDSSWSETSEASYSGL
Experimental: as §1

CXCR4 = CXCR4 (Homo sapiens, UniProt P61073); details: Receptor CXCR4
CXCR4, sequence (P61073 whole entry, species assumed): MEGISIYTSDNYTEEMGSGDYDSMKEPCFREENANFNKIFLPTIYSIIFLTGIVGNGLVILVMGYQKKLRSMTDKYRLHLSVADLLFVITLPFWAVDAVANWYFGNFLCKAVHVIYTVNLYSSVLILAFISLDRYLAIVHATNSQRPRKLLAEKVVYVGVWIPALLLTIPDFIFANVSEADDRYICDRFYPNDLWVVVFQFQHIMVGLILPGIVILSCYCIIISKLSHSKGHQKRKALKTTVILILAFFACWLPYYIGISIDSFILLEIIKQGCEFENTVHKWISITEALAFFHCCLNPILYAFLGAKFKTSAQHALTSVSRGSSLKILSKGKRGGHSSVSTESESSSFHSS
Experimental: as §1

CXCR6 = CXCR6 (Homo sapiens, UniProt O00574); details: Receptor CXCR6
CXCR6, sequence (O00574 whole entry, species assumed): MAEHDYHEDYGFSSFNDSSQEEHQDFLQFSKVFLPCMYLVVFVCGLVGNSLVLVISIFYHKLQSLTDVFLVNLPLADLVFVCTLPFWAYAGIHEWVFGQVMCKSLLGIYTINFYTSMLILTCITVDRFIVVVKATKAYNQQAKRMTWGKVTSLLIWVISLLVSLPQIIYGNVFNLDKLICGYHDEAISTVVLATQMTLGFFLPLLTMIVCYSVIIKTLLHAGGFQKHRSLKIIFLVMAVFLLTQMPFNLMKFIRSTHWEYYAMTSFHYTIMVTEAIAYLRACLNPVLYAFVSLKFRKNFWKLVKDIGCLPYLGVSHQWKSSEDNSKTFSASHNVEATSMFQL
Experimental: as §1

CXCR7 = CXCR7 (Homo sapiens, UniProt P25106); details: Receptor CXCR7
CXCR7, sequence (P25106 whole entry, species assumed): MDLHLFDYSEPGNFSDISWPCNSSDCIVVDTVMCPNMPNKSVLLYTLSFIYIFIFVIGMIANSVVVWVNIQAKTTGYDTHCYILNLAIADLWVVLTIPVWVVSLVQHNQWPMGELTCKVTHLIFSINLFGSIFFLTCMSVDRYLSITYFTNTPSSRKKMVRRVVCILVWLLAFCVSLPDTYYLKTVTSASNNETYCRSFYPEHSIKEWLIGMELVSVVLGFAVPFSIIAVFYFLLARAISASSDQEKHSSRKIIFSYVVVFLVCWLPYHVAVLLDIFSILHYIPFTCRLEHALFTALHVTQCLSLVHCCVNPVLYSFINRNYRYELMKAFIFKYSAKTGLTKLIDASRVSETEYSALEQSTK
Experimental: as §1

IC50 (CCR1): > 10 µM
IC50 (CCR6): > 10 µM
IC50 (CCR7): > 10 µM
IC50 (CCR8): > 10 µM
IC50 (CCR9): > 10 µM
IC50 (CXCR2): > 10 µM
IC50 (CXCR3): > 10 µM
IC50 (CXCR4): > 10 µM
IC50 (CXCR6): > 10 µM
IC50 (CXCR7): > 10 µM
SMILES: C[C@@H](Nc1cc(C2CCN([C@H]3CCCN(CCC(=O)O)C3)CC2)ccc1Cl)c1ccc(Cl)cc1Cl [Compound 1]
